Measured values from publication PMC2655231 (Cancer research, 2009).

Tests used:
Assay in all cases: in vitro radiometric kinase assay
Format in all cases: biochemical
Aurora A kinase = molecular target: T1, Aurora A kinase (Homo sapiens, UniProt O14965)
T1 sequence (O14965 122-403): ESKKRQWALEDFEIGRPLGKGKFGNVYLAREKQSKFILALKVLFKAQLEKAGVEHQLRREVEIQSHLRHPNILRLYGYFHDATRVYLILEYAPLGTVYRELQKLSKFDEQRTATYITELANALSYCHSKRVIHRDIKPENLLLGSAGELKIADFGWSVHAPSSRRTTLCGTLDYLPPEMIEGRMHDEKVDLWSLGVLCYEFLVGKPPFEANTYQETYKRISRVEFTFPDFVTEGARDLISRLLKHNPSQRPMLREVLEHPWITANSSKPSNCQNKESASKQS
T1 sequence (Q9ULW0 1-747 partner): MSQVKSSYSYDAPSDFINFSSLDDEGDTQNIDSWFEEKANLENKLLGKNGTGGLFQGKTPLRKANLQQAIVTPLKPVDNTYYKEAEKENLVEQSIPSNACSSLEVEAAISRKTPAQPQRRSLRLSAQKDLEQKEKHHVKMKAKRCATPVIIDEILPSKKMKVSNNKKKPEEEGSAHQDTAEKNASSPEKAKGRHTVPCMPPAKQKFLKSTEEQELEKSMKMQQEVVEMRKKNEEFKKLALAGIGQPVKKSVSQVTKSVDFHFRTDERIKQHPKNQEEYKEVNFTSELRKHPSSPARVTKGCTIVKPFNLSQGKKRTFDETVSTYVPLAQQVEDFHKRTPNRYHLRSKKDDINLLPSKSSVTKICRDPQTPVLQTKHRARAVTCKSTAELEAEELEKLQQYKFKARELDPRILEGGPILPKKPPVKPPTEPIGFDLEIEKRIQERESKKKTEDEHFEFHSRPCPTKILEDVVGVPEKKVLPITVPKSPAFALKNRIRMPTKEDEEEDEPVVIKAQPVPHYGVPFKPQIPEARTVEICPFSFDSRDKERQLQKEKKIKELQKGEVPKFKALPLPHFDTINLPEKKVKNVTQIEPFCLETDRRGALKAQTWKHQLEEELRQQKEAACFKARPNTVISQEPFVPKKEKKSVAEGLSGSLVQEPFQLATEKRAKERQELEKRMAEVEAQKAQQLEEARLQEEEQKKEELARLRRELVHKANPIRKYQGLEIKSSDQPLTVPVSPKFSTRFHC

Cdk1/cyclinB = Cdk1/cyclinB (Homo sapiens, UniProt P06493)
Aurora B kinase = Aurora B kinase (Xenopus laevis, UniProt Q6DE08)
Cdk5/p25 = Cdk5/p25 (Homo sapiens, UniProt Q00535)
Chain of Cdk5/p25 (Q00535 whole entry): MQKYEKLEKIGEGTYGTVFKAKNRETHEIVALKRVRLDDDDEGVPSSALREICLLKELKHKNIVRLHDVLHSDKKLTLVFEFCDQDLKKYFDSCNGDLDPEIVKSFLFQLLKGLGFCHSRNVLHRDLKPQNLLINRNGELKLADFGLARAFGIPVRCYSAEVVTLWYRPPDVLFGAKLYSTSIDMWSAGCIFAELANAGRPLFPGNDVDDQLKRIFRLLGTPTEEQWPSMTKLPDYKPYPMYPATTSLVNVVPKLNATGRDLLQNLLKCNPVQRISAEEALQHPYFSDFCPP
Chain of Cdk5/p25 (Q15078 2-307 partner): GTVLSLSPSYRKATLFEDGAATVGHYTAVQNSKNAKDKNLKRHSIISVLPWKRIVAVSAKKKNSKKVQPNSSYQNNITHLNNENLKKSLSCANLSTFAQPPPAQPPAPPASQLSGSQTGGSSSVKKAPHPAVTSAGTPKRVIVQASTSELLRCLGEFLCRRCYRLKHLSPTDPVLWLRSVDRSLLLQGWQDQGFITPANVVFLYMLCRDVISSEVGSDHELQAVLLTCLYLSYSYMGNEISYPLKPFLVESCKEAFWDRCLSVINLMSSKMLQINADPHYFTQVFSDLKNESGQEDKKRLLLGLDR

Chain of Aurora B kinase (Q6DE08 60-361 limits assumed): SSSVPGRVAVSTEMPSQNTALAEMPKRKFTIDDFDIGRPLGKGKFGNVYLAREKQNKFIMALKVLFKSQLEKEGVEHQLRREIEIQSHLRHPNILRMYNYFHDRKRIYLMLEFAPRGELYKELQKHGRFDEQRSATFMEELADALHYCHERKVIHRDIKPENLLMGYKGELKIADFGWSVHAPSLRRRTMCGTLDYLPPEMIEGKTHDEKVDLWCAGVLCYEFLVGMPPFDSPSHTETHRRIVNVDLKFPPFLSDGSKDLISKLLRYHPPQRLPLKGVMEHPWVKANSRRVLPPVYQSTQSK
Chain of Aurora B kinase (O13024 whole entry partner): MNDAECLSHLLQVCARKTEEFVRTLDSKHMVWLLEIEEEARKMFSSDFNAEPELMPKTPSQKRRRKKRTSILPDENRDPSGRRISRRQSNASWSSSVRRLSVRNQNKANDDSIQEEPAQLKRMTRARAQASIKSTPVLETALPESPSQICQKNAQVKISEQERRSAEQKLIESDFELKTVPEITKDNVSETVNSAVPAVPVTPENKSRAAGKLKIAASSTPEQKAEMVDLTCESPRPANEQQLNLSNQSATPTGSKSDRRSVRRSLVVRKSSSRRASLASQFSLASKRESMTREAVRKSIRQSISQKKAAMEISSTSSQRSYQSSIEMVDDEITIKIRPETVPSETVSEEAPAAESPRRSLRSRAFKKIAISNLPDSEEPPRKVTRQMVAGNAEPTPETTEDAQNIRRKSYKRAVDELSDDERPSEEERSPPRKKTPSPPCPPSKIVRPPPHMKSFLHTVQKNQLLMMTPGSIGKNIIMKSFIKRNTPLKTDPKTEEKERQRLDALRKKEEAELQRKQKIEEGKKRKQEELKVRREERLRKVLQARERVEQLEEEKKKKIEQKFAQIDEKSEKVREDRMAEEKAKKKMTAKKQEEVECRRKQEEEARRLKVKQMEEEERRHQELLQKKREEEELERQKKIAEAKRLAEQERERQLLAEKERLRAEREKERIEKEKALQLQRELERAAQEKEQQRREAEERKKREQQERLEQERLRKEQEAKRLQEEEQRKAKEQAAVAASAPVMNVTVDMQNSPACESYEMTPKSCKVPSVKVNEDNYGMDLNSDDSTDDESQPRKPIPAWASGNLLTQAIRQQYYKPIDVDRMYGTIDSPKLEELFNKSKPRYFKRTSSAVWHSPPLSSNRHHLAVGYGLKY
Chain of Cdk1/cyclinB (P06493 whole entry): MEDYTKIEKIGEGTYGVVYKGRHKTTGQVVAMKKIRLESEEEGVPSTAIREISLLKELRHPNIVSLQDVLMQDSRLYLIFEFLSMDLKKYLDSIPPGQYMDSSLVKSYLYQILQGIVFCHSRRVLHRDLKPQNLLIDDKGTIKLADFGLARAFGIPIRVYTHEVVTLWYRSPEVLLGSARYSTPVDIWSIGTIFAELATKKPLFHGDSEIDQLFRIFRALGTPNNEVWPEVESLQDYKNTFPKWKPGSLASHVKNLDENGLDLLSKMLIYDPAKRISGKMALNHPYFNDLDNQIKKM
Chain of Cdk1/cyclinB (P14635 whole entry partner): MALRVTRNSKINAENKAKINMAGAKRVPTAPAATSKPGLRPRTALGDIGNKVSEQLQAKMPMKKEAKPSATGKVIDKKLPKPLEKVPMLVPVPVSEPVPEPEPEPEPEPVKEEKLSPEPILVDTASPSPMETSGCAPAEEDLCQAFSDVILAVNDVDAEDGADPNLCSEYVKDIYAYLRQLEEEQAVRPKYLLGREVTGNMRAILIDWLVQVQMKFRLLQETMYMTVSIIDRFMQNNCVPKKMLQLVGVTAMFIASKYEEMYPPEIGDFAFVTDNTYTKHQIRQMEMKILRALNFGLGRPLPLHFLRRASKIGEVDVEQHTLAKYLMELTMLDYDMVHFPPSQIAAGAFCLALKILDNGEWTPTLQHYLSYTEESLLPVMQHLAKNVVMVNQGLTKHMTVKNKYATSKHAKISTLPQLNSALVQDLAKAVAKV

IC50 (Aurora A kinase): 21.7 µM | IC50 (Cdk1/cyclinB): ~20 µM | IC50 (Aurora B kinase): 2.4 µM | IC50 (Cdk5/p25): ~20 µM
Structure (SMILES): COc1cc(/C=N/NC(=O)c2sc(N)nc2C)ccc1O [OM137]
